In patent US20260184710A1, “CASITAS B-LINEAGE LYMPHOMA PROTOONCOGENE B (CBL-B) DEGRADING COMPOUNDS AND ASSOCIATED METHODS OF USE” (Arvinas Operations, Inc., priority 2022, published 2026):

Legend:
Cbl-b [1] = molecular target: T1, Cbl-b (Homo sapiens, UniProt Q13191); assay: Cbl-b Degradation Method A (FACS, anti-Cbl-b antibody staining); format: cell-based; conditions: Cbl-b-HiBit KI Jurkat Cells, incubated at least 20 hours; for DC50: half maximal degradation, read-out: Cbl-b Degredation Method A IC50; for Dmax: Jurkat, maximum degradation observed, read-out: Cbl-b Degredation Method A Dmax (%)
T1 construct: Cbl-b-HiBit KI Jurkat Cells were purchased from Promega; host or cells: Cbl-b-HiBiT knock-in Jurkat cells
T1 sequence (Q13191 whole entry): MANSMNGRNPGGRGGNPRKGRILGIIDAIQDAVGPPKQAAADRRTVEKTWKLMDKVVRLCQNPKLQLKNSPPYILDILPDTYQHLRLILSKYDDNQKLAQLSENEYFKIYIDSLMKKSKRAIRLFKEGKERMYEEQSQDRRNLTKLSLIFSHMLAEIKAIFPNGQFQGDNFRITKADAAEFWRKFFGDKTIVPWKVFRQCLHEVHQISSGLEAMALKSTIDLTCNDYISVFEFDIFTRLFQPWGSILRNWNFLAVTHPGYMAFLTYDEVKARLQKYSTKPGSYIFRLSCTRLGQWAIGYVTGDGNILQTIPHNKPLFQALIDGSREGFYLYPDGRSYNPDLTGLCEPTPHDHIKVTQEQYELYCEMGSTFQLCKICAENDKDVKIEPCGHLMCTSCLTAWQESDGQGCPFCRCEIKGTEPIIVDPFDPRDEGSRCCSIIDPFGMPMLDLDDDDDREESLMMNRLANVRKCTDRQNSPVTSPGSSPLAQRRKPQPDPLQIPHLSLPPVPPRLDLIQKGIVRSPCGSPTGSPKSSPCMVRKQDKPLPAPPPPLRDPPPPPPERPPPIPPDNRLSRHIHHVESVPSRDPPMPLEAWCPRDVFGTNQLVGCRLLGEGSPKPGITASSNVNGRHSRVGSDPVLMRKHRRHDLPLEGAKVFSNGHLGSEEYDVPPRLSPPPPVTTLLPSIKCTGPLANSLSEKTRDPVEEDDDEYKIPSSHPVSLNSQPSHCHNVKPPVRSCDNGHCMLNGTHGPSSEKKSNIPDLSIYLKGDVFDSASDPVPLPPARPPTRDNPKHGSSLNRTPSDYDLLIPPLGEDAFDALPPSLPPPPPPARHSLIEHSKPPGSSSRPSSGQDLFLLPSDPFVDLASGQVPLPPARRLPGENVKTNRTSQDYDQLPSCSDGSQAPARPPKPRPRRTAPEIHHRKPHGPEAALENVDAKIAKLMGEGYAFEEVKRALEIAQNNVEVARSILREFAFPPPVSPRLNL
Method in brief: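 Readout is flow cytometry of fixed, permeabilized cells immunostained for Cbl-b (primary 1:200, AF488 secondary). Cells were Cbl-b-HiBit knock-in Jurkat, exposed to compound ≥20 h at 37 °C; half-maximal degradation concentration (DC50) and maximal degradation (Dmax) calculated relative to control.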

Cbl-b [2] = molecular target: T1, Cbl-b; assay: Cbl-b Degradation Method B (Nano-Glo HiBiT lytic detection); format: cell-based; conditions: Cbl-b-HiBit KI Jurkat Cells, incubated at least 6-24 hours; for DC50: half maximal degradation, read-out: Cbl-b Degredation Method B IC50; for Dmax / Cbl-b Degredation Method B Dmax (%): maximum degradation observed; for Dmax: read-out: Cbl-b Degredation Method B Dmax (%)
Method in brief: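 An 11-point, 3-fold compound dilution was applied for 6-24 hours to Jurkat cells carrying HiBiT-tagged endogenous Cbl-b. Lytic HiBiT luminescence quantified residual protein. Outputs are DC50 and Dmax relative to DMSO control.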

Compound	DC50 (Cbl-b [1])	DC50 (Cbl-b [2])	Dmax (Cbl-b [1])	Dmax (Cbl-b [2])	Cbl-b Degredation Method B Dmax (%) (Cbl-b [2])
Cn1cnnc1CC1(c2cccc(N3Cc4c(cc(CN5CCC[C@H](CN6CCC(C7CCN(c8ccc9c(c8)C(=O)N(C8CCC(=O)NC8=O)C9=O)CC7)CC6)C5)cc4C(F)(F)F)C3=O)c2)COC1 (stereo partly drawn) [Example 96, 2-(2,6-dioxopiperidin-3-yl)-5-(1′-{[(3R)-1-{[2-(3-{3-[(4-methyl-4H-1,2,4-triazol-3-yl)methyl]oxetan-3-yl}phenyl)-3-oxo-7-(trifluoromethyl)-2,3-dihydro-1H-isoindol-5-yl]methyl}piperidin-3-yl]methyl}-[4,4′-bipiperidin]-1-yl)-2,3-dihydro-1H-isoindole-1,3-dione]	> 500 nM	> 500 nM			
Cn1cnnc1CC1(c2cccc(N3Cc4c(cc(N5CC6(CCN(CC7CCN(c8ccc9c(c8)CN(C8CCC(=O)NC8=O)C9=O)CC7)CC6)C5)cc4C(F)(F)F)C3=O)c2)COC1 (stereo not drawn) [Example 117, 3-{5-[4-({2-[2-(3-{3-[(4-methyl-4H-1,2,4-triazol-3-yl)methyl]oxetan-3-yl}phenyl)-3-oxo-7-(trifluoromethyl)-2,3-dihydro-1H-isoindol-5-yl]-2,7-diazaspiro[3.5]nonan-7-yl}methyl)piperidin-1-yl]-1-oxo-2,3-dihydro-1H-isoindol-2-yl}piperidine-2,6-dione]	< 5 nM	< 5 nM	35 to 70%	35 to 70%	
Cn1cnnc1CC1(c2cccc(N3Cc4c(cc(CN5CCC(CC6CCN(c7ccc8c(c7)C(=O)N(C7CCC(=O)NC7=O)C8=O)CC6)C5)cc4C(F)(F)F)C3=O)c2)COC1 (stereo not drawn) [Example 75, 2-(2,6-dioxopiperidin-3-yl)-5-{4-[(1-{[2-(3-{3-[(4-methyl-4H-1,2,4-triazol-3-yl)methyl]oxetan-3-yl}phenyl)-3-oxo-7-(trifluoromethyl)-2,3-dihydro-1H-isoindol-5-yl]methyl}pyrrolidin-3-yl)methyl]piperidin-1-yl}-2,3-dihydro-1H-isoindole-1,3-dione]	> 500 nM	> 500 nM			
Cn1cnnc1CC1(c2cccc(N3Cc4c(cc(CN5CCC[C@@H](CN6CCC(CC7CCN(c8ccc9c(c8)C(=O)N(C8CCC(=O)NC8=O)C9=O)CC7)CC6)C5)cc4C(F)(F)F)C3=O)c2)COC1 (stereo partly drawn) [Example 110, 2-(2,6-dioxopiperidin-3-yl)-5-{4-[(1-{[(3S)-1-{[2-(3-{3-[(4-methyl-4H-1,2,4-triazol-3-yl)methyl]oxetan-3-yl}phenyl)-3-oxo-7-(trifluoromethyl)-2,3-dihydro-1H-isoindol-5-yl]methyl}piperidin-3-yl]methyl}piperidin-4-yl)methyl]piperidin-1-yl}-2,3-dihydro-1H-isoindole-1,3-dione]	5 to 50 nM	> 500 nM	< 35%		
CC(C)n1c(=O)n(C2CCC(=O)NC2=O)c2cccc(N3CCC(CN4CCC5(CC4)CN(Cc4ccc(-c6cc7c(c(C(F)(F)F)c6)CN(c6cccc(C8(Cc9nncn9C)CC(C#N)C8)c6)C7=O)cc4)C5)CC3)c21 (stereo not drawn) [Example 283, 3-[3-[6-[4-[[7-[[1-[1-(2,6-dioxo-3-piperidyl)-3-isopropyl-2-oxo-benzimidazol-4-yl]-4-piperidyl]methyl]-2,7-diazaspiro[3.5]nonan-2-yl]methyl]phenyl]-1-oxo-4-(trifluoromethyl)isoindolin-2-yl]phenyl]-3-[(4-methyl-1,2,4-triazol-3-yl)methyl]cyclobutanecarbonitrile]	50 to 500 nM	5 to 50 nM	35 to 70%		C (C ≤ 35)
Cn1cnnc1CC1(c2cccc(NC(=O)c3cc(CN4CCC[C@H](CN5CCC(CN6CCN(c7ccc8c(c7)C(=O)N(C7CCC(=O)NC7=O)C8=O)CC6)CC5)C4)nc(C4CC4)n3)c2)COC1 (stereo partly drawn) [Example 19, 2-cyclopropyl-6-[[(3R)-3-[[4-[[4-[2-(2,6-dioxo-3-piperidyl)-1,3-dioxo-isoindolin-5-yl]piperazin-1-yl]methyl]-1-piperidyl]methyl]-1-piperidyl]methyl]-N-[3-[3-[(4-methyl-1,2,4-triazol-3-yl)methyl]oxetan-3-yl]phenyl]pyrimidine-4-carboxamide]	50 to 500 nM	< 5 nM		< 35%	
CC1CN(C[C@H]2CC[C@H](OC3CCN(c4ccc5c(c4F)CN(C4CCC(=O)NC4=O)C5=O)CC3)CC2)CCN1Cc1cc2c(c(C(F)(F)F)c1)CN(c1cccc([C@]3(Cc4nncn4C)C[C@@H](C#N)C3)c1)C2=O (stereo partly drawn) [Example 204, (1r,3r)-3-(3-{6-[(2-methyl-4-{[(1r,4r)-4-({1-[2-(2,6-dioxopiperidin-3-yl)-4-fluoro-1-oxo-2,3-dihydro-1H-isoindol-5-yl]piperidin-4-yl}oxy)cyclohexyl]methyl}piperazin-1-yl)methyl]-1-oxo-4-(trifluoromethyl)-2,3-dihydro-1H-isoindol-2-yl}phenyl)-3-[(4-methyl-4H-1,2,4-triazol-3-yl)methyl]cyclobutane-1-carbonitrile]	< 5 nM	< 5 nM	> 70%	35 to 70%	

Next, values leading:

DC50 (Cbl-b [1])	DC50 (Cbl-b [2])	Dmax (Cbl-b [1])	Dmax (Cbl-b [2])	Cbl-b Degredation Method B Dmax (%) (Cbl-b [2])	Compound
5 to 50 nM	< 5 nM	35 to 70%		C (C ≤ 35)	CC(C)n1c(=O)n(C2CCC(=O)NC2=O)c2cccc(N3CCC(O[C@H]4CC[C@H](CN5CC6(CN(Cc7cc8c(c(C(F)(F)F)c7)CN(c7cccc([C@]9(Cc%10nncn%10C)C[C@@H](C#N)C9)c7)C8=O)C6)C5)CC4)CC3)c21 (stereo partly drawn) [Example 327, (1r,3r)-3-[(4-methyl-4H-1,2,4-triazol-3-yl)methyl]-3-(3-{1-oxo-6-[(6-{[(1r,4r)-4-({1-[1-(2,6-dioxopiperidin-3-yl)-2-oxo-3-(propan-2-yl)-2,3-dihydro-1H-1,3-benzodiazol-4-yl]piperidin-4-yl}oxy)cyclohexyl]methyl}-2,6-diazaspiro[3.3]heptan-2-yl)methyl]-4-(trifluoromethyl)-2,3-dihydro-1H-isoindol-2-yl}phenyl)cyclobutane-1-carbonitrile]
5 to 50 nM	50 to 500 nM	35 to 70%		B (35 < B < 70)	Cn1cnnc1CC1(c2cccc(N3Cc4c(cc(CN5CCN(C[C@H]6CC[C@H](OC7CCN(c8cccc9c8ncn9C8CCC(=O)NC8=O)CC7)CC6)CC5(C)C)cc4C(F)(F)F)C3=O)c2)CC(C#N)C1 (stereo partly drawn) [Example 314, (1r**,3r**)-3-(3-{6-[(2,2-dimethyl-4-{[(1r*,4r*)-4-({1-[1-(2,6-dioxopiperidin-3-yl)-1H-1,3-benzodiazol-4-yl]piperidin-4-yl}oxy)cyclohexyl]methyl}piperazin-1-yl)methyl]-1-oxo-4-(trifluoromethyl)-2,3-dihydro-1H-isoindol-2-yl}phenyl)-3-[(4-methyl-4H-1,2,4-triazol-3-yl)methyl]cyclobutane-1-carbonitrile]
50 to 500 nM	< 5 nM	35 to 70%		C (C ≤ 35)	C[C@@H]1c2nc(N3CCC(O[C@H]4CC[C@H](CN5CCN(Cc6cc7c(c(C(F)(F)F)c6)CN(c6cccc(C8(Cc9nncn9C)CC(C#N)C8)c6)C7=O)CC5(C)C)CC4)CC3)ccc2C(=O)N1C1CCC(=O)NC1=O (single isomer, unassigned) [Example 311, (1r***,3r***)-3-(3-{6-[(3,3-dimethyl-4-{[(1r**,4r**)-4-({1-[(7R*)-6-(2,6-dioxopiperidin-3-yl)-7-methyl-5-oxo-5H,6H,7H-pyrrolo[3,4-b]pyridin-2-yl]piperidin-4-yl}oxy)cyclohexyl]methyl}piperazin-1-yl)methyl]-1-oxo-4-(trifluoromethyl)-2,3-dihydro-1H-isoindol-2-yl}phenyl)-3-[(4-methyl-4H-1,2,4-triazol-3-yl)methyl]cyclobutane-1-carbonitrile]
50 to 500 nM	5 to 50 nM	35 to 70%		C (C ≤ 35)	Cn1cnnc1C[C@]1(c2cccc(N3Cc4c(cc(CN5CCN(C[C@H]6CC[C@H](OC7CCN(c8cccc9c8nc(OC(F)F)n9C8CCC(=O)NC8=O)CC7)CC6)CC5(C)C)cc4C(F)(F)F)C3=O)c2)C[C@H](C#N)C1 (stereo partly drawn) [Example 325, (1r,3r)-3-(3-{6-[(2,2-dimethyl-4-{[(1r,4r)-4-({1-[2-(difluoromethoxy)-1-(2,6-dioxopiperidin-3-yl)-1H-1,3-benzodiazol-4-yl]piperidin-4-yl}oxy)cyclohexyl]methyl}piperazin-1-yl)methyl]-1-oxo-4-(trifluoromethyl)-2,3-dihydro-1H-isoindol-2-yl}phenyl)-3-[(4-methyl-4H-1,2,4-triazol-3-yl)methyl]cyclobutane-1-carbonitrile]
50 to 500 nM	< 5 nM	35 to 70%		C (C ≤ 35)	CC(C)n1c(=O)n(C2CCC(=O)NC2=O)c2ccc(N3CCC(O[C@H]4CC[C@H](CN5CCN(Cc6cc7c(c(C(F)(F)F)c6)CN(c6cccc(C8(Cc9nncn9C)CC(C#N)C8)c6)C7=O)C(C)(C)C5)CC4)CC3)c(F)c21 (stereo partly drawn) [Example 318, (1r**,3r**)-3-(3-{6-[(2,2-dimethyl-4-{[(1r*,4r*)-4-({1-[1-(2,6-dioxopiperidin-3-yl)-4-fluoro-2-oxo-3-(propan-2-yl)-2,3-dihydro-1H-1,3-benzodiazol-5-yl]piperidin-4-yl}oxy)cyclohexyl]methyl}piperazin-1-yl)methyl]-1-oxo-4-(trifluoromethyl)-2,3-dihydro-1H-isoindol-2-yl}phenyl)-3-[(4-methyl-4H-1,2,4-triazol-3-yl)methyl]cyclobutane-1-carbonitrile]
